In patent US8999983B2, “Modulators of Hec1 activity and methods therefor” (Taivex Therapeutics Corporation, priority 2011, dated 2015):
pIC50: −log10 of the molar value.

How the values were obtained:
MDA-MB-231 xenograft = assay: Mouse xenograft study, MDA-MB-231 breast cancer; format: in vivo; conditions: MDA-MB-231 breast cancer xenograft, nude mice
[1] = Body weight in mouse xenograft studies; format: in vivo, nude mice; conditions: xenograft studies FIG. 7A-7D, nude mice
Procedure: (§1) Mouse Xenograft Studies: Xenograft studies adapted from a previous published protocol (Wu et al, Cancer Res. 2008 Oct. 15; 68(20):8393-9). Female BALB/c nude (nu/nu) mice (5-8 weeks) were obtained from Lasco (Industrial Park, Tai-Ping Area, Taichung City, Taiwan). The animals were maintained under specific pathogen-free conditions, and food and water were supplied ad libitum. Housing and all procedures involving animals were performed according to protocols approved by the IACUC in DCB. Nude mice were inoculated with 17-β-estradiol pellets 72 to 96 h before implantation of BT-474 cells. For subcutaneous implantation of BT-474 cells, cells (1×10^7 in matrix gel/animal) were injected subcutaneously into the right subaxillary region. Treatment started when average tumor volume reached about 200 mm^3; mice were treated (p.o., QD/28 cycles in total) with vehicle A (0.5% methylcellulose), or candidate compounds formulated in vehicle A (10-50 mg/kg body weight). Perpendicular diameter measurement of each tumor were made with digital calipers and the volume of the tumor calculated using formula (L×W×W)/2, in which L and W represent the length and the width, respectively. Body weights were measured three times weekly.
(§2) The in vivo effectiveness of contemplated compounds in the reduction of tumor volume in nude mice is readily apparent.
(§3) Development of resistance to treatment in advanced stage tumors is a well known phenomenon. Activity of select Hec1 inhibitor in such late stage tumors was determined by re-dosing of BT474 xenografted animals that had previously subjected to 35 days of treatment with 110095 (compound 27 of Table 1). Re-treatment with 110095 was starting on day 42 and continued for 21 days.

BT474 xenograft = assay: Mouse xenograft study, BT474 breast cancer; format: in vivo, nude mice; conditions: BT474 breast cancer xenograft, nude mice
Procedure: as §1, §2, §3

Huh-7 xenograft = assay: Mouse xenograft study, Huh-7 liver cancer; format: in vivo; conditions: Huh-7 liver cancer xenograft, nude mice
cancer cells = assay: DNA content analysis (propidium iodide, FACS); format: cell-based
Procedure: DNA Content Analysis: Cells were plated in a 10-cm culture plate and cultured overnight. Cells were incubated with the compound for the indicated time and collected at the indicated time points. Cells were fixed with 70% ethanol overnight, stained with propidium iodide solution (1.25 mg/ml propidium iodide (Sigma) and 20 μl/ml […] in PBS) and subjected to fluorescence activated cell sorting (FACS). The results were analyzed by Cell Quest software (BD Biosciences, San Jose Calif. 95131 USA).

MDA-MB-231 = assay: Antiproliferation assay (MTS), MDA-MB-231 cells; format: cell-based; conditions: Homo sapiens, MDA-MB-231, 96 h, read-out: Antiproliferative IC50 MDA-MB-231, Table 2
How it was run: (§4)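 Cells seeded after overnight attachment were treated in triplicate for 96 h at 37 °C, 5% CO2, final DMSO below 1%. Viability read by MTS absorbance; concentration-response curves fitted by linear regression against DMSO controls.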

MDA-MB-468 = assay: Antiproliferation assay (MTS), MDA-MB-468 cells; format: cell-based; conditions: Homo sapiens, MDA-MB-468, 96 h, Table 2, read-out: Antiproliferative IC50 MDA-MB-468
How it was run: as §4

Row | pIC50 (MDA-MB-231) | pIC50 (MDA-MB-468) | Structure (SMILES) | xenograft tumor outgrowth (MDA-MB-231 xenograft) | body weight [1] | xenograft tumor outgrowth (BT474 xenograft) | xenograft tumor outgrowth (Huh-7 xenograft) | sub-G1 population (apoptotic cells) (cancer cells)
1 | – | – | COc1ccc(Oc2cc(C)c(-c3csc(NC(=O)c4ccncc4)n3)c(C)c2)cc1 [II-95, N-(4-(4-(4-Methoxyphenoxy)-2,6-dimethylphenyl)thiazol-2-yl)isonicotinamide] | inhibition of xenograft tumor outgrowth | body weight remained constant | inhibition of xenograft tumor outgrowth | inhibition of xenograft tumor outgrowth | –
2 | 7.70 | 7.40 | COc1ccc(Oc2cc(C)c(-c3csc(NC(=O)c4ccnc(F)c4)n3)c(C)c2)cc1 [II-98, 2-Fluoro-N-(4-(4-(4-methoxyphenoxy)-2,6-dimethylphenyl)thiazol-2-yl)isonicotinamide] | – | – | – | – | increase in the sub-G1 population
